From patent publication US4075336A, “Thiazines and method” (Kanto Ishiseiyaku Co., Ltd., priority 1976, dated 1978)

How the values were obtained:
dd strain mice [1] = assay: Acute toxicity, intraperitoneal (LD50, deaths); assay type: in vivo
Method: (§1) Animals [dd strain mice; 5 groups of males and 5 groups of females, each group consisting of 8 animals] were intraperitoneally given the compound of this invention in doses of 2000, 2400, 2880, 3456 and 5000 mg/kg. […] Based on this finding, it may be concluded that the value of LD50 is at least more than 5000 mg/kg.

[2] = Acute toxicity, intraperitoneal (LD50, deaths); assay type: in vivo; settings: mouse, in vivo, ip; intraperitoneal, dd strain mice, males and females
Method: as §1

rats = assay: Analgesic effect, Randall-Selitto method (pain threshold, carrageenan-inflamed paw); assay type: in vivo
Method: Using an analgesic effect measuring apparatus (made by Ugo Basile Co., Ltd.), pain thresholds in rats were measured as a function of elapsed time and compared with normal pain threshold values which had previously been determined. Each group consisted of 5 animals, which were subcutaneously given 0.1 ml of a 1% carrageenan suspension on their right paws. The test compounds were given orally, 1 hour before the carrageenan medication. The experiments were repeated twice under the same conditions. The mean values of the results obtained for 10 animals were compared with those of methiazinic acid.
The results obtained are shown in Table 1, wherein "OS" refers to oral administration.

Wister-strain rats = assay: Anti-inflammatory effect, carrageenan-induced edema; assay type: in vivo; settings: for inhibitory percent: vs control
Method: (Carrageenen-induced edema)
Wister-strain rats (each group consisting of 5 animals) were subcutaneously given 0.1 ml of a 1% carrageenan suspension on their right paws. The volumes of the right paws were measured prior to the administration, and thereafter were measured with elapsed time. The inhibitory percent was calculated, in comparison with a control, on the basis of the volume of edema induced. The volume was estimated with reference to the volume before the carrageenan-injection. The test compounds were orally administered 1 hour before the carrageenan-injection. The same experiments were repeated twice. The mean values of the results in all 10 animals were compared with those of methiazinic acid.

dd strain mice [3] = settings: methiazinic acid; source of value not given; cited from earlier work
[4] = 50 mg/kg per os, inflammated paw
[5] = 100 mg/kg per os, inflammated paw

For `COc1ccc(C2NC(=O)c3ccccc3S2)cc1O` (centres unmarked) [Compound of this invention, 4-oxo-2-(3-hydroxy-4-methoxyphenyl)-2,3-dihydro-5,6-benzo-1,3-thiazine], the “toxicity relative to that of methiazinic acid” value (dd strain mice [1]; from LD50 values) was “less than one/tenth”, the deaths (dd strain mice [1]; intraperitoneal, 2000, 2400, 2880, 3456 and 5000 mg/kg, male and female dd strain mice) was “no deaths were observed” and the LD50 [2] was greater than 5000 mg/kg. The Analgesic coefficient (rats; [4]) was 0.73, the “Pain threshold after 30 min.” value (rats; [4]) was 62.5 mm Hg and the “Pain threshold after 60 min.” value (rats; [4]) was 57.7 mm Hg. The “Pain threshold after 90 min.” value (rats; [4]) was 48.0 mm Hg, the “Pain threshold after 120 min.” value (rats; [4]) was 41.8 mm Hg and the “Pain threshold after 180 min.” value (rats; [4]) was 36.8 mm Hg. The “Pain threshold after 240 min.” value (rats; [4]) was 44.2 mm Hg, the “Pain threshold, before medication” value (rats; [4]) was 66.8 mm Hg and the Analgesic coefficient (rats; 50 mg/kg per os, normal paw) was 0.93. The “Pain threshold after 30 min.” value (rats; 50 mg/kg per os, normal paw) was 66.7 mm Hg, the “Pain threshold after 60 min.” value (rats; 50 mg/kg per os, normal paw) was 66.0 mm Hg and the “Pain threshold after 90 min.” value (rats; 50 mg/kg per os, normal paw) was 64.0 mm Hg. For the same molecule, the “Pain threshold after 120 min.” value (rats; 50 mg/kg per os, normal paw) was 61.7 mm Hg, the “Pain threshold after 180 min.” value (rats; 50 mg/kg per os, normal paw) was 57.3 mm Hg and the “Pain threshold after 240 min.” value (rats; 50 mg/kg per os, normal paw) was 60.8 mm Hg. For the same molecule, the “Pain threshold, before medication” value (rats; 50 mg/kg per os, normal paw) was 67.3 mm Hg, the Analgesic coefficient (rats; [5]) was 0.82 and the “Pain threshold after 30 min.” value (rats; [5]) was 66.7 mm Hg. For the same molecule, the “Pain threshold after 60 min.” value (rats; [5]) was 63.7 mm Hg, the “Pain threshold after 90 min.” value (rats; [5]) was 57.2 mm Hg and the “Pain threshold after 120 min.” value (rats; [5]) was 49.0 mm Hg. The “Pain threshold after 180 min.” value (rats; [5]) was 43.3 mm Hg, the “Pain threshold after 240 min.” value (rats; [5]) was 43.2 mm Hg and the “Pain threshold, before medication” value (rats; [5]) was 65.6 mm Hg. The Analgesic coefficient (rats; 100 mg/kg per os, normal paw) was 0.96, the “Pain threshold after 30 min.” value (rats; 100 mg/kg per os, normal paw) was 65.0 mm Hg and the “Pain threshold after 60 min.” value (rats; 100 mg/kg per os, normal paw) was 65.7 mm Hg. For the same molecule, the “Pain threshold after 90 min.” value (rats; 100 mg/kg per os, normal paw) was 65.2 mm Hg, the “Pain threshold after 120 min.” value (rats; 100 mg/kg per os, normal paw) was 62.5 mm Hg and the “Pain threshold after 180 min.” value (rats; 100 mg/kg per os, normal paw) was 61.0 mm Hg. For the same molecule, the “Pain threshold after 240 min.” value (rats; 100 mg/kg per os, normal paw) was 61.2 mm Hg, the “Pain threshold, before medication” value (rats; 100 mg/kg per os, normal paw) was 66.0 mm Hg and the “analgesic effect (in words)” value (rats; 50 and 100 mg/kg, oral) was “clearly exerts analgesic effects”. For the same molecule, the “duration and strength of analgesic effect compared with methiazinic acid (in words)” value (rats; 50 and 100 mg/kg, oral) was “about the same duration and strength of effect as methiazinic acid”, the edema percent (Wister-strain rats; 50 mg/kg per os, 1 hr.) was 29.3% and the inhibitory percent (Wister-strain rats; 50 mg/kg per os, 1 hr.) was 39.2%. It also gave an edema percent (Wister-strain rats; 50 mg/kg per os, 2 hrs.) of 43.1%, an inhibitory percent (Wister-strain rats; 50 mg/kg per os, 2 hrs.) of 32.6% and an edema percent (Wister-strain rats; 50 mg/kg per os, 3 hrs.) of 43.1%. For the same molecule, the inhibitory percent (Wister-strain rats; 50 mg/kg per os, 3 hrs.) was 37.3%, the edema percent (Wister-strain rats; 50 mg/kg per os, 4 hrs.) was 42.4% and the inhibitory percent (Wister-strain rats; 50 mg/kg per os, 4 hrs.) was 32.1%. The edema percent (Wister-strain rats; 50 mg/kg per os, 5 hrs.) was 37.4%, the inhibitory percent (Wister-strain rats; 50 mg/kg per os, 5 hrs.) was 36.4% and the edema percent (Wister-strain rats; 100 mg/kg per os, 1 hr.) was 24.1%. For the same molecule, the inhibitory percent (Wister-strain rats; 100 mg/kg per os, 1 hr.) was 42.1%, the edema percent (Wister-strain rats; 100 mg/kg per os, 2 hrs.) was 31.5% and the inhibitory percent (Wister-strain rats; 100 mg/kg per os, 2 hrs.) was 49.9%. For the same molecule, the edema percent (Wister-strain rats; 100 mg/kg per os, 3 hrs.) was 34.6%, the inhibitory percent (Wister-strain rats; 100 mg/kg per os, 3 hrs.) was 50.4% and the edema percent (Wister-strain rats; 100 mg/kg per os, 4 hrs.) was 33.9%. It also gave an inhibitory percent (Wister-strain rats; 100 mg/kg per os, 4 hrs.) of 47.5%, an edema percent (Wister-strain rats; 100 mg/kg per os, 5 hrs.) of 35.5% and an inhibitory percent (Wister-strain rats; 100 mg/kg per os, 5 hrs.) of 39.1%. For the same molecule, the “anti-inflammatory effect compared with methiazinic acid (in words)” value (Wister-strain rats; 50 and 100 mg/kg per os) was “very similar to that of methiazinic acid”, the “duration of anti-inflammatory effect (in words)” value (Wister-strain rats; 50 and 100 mg/kg per os) was “long duration effect, which was observed even after 5 hours” and the “anti-inflammatory effect 1 hour after administration (in words)” value (Wister-strain rats; 50 and 100 mg/kg per os, 1 hour) was “significant effect 1 hour after administration”.
In the case of `CN1c2ccccc2Sc2ccc(CC(=O)O)cc21` [Methiazinic acid, α-(10-methyl-2-pheno-thiazinyl)-acetic acid, reference compound], the LD50 (dd strain mice [3]) is given as “about 500 mg/kg”, the Analgesic coefficient (rats; [4]) is given as 0.74 and the “Pain threshold after 30 min.” value (rats; [4]) is given as 62.7 mm Hg. The “Pain threshold after 60 min.” value (rats; [4]) was 57.7 mm Hg, the “Pain threshold after 90 min.” value (rats; [4]) was 48.9 mm Hg and the “Pain threshold after 120 min.” value (rats; [4]) was 43.5 mm Hg. For the same molecule, the “Pain threshold after 180 min.” value (rats; [4]) was 39.0 mm Hg, the “Pain threshold after 240 min.” value (rats; [4]) was 44.5 mm Hg and the “Pain threshold, before medication” value (rats; [4]) was 66.8 mm Hg. For the same molecule, the Analgesic coefficient (rats; 50 mg/kg per os, normal paw) was 0.94, the “Pain threshold after 30 min.” value (rats; 50 mg/kg per os, normal paw) was 66.2 mm Hg and the “Pain threshold after 60 min.” value (rats; 50 mg/kg per os, normal paw) was 65.3 mm Hg. For the same molecule, the “Pain threshold after 90 min.” value (rats; 50 mg/kg per os, normal paw) was 63.8 mm Hg, the “Pain threshold after 120 min.” value (rats; 50 mg/kg per os, normal paw) was 62.0 mm Hg and the “Pain threshold after 180 min.” value (rats; 50 mg/kg per os, normal paw) was 59.7 mm Hg. For the same molecule, the “Pain threshold after 240 min.” value (rats; 50 mg/kg per os, normal paw) was 61.3 mm Hg, the “Pain threshold, before medication” value (rats; 50 mg/kg per os, normal paw) was 67.2 mm Hg and the Analgesic coefficient (rats; [5]) was 0.83. For the same molecule, the “Pain threshold after 30 min.” value (rats; [5]) was 69.3 mm Hg, the “Pain threshold after 60 min.” value (rats; [5]) was 66.7 mm Hg and the “Pain threshold after 90 min.” value (rats; [5]) was 57.3 mm Hg. The “Pain threshold after 120 min.” value (rats; [5]) was 49.5 mm Hg, the “Pain threshold after 180 min.” value (rats; [5]) was 47.2 mm Hg and the “Pain threshold after 240 min.” value (rats; [5]) was 47.2 mm Hg. For the same molecule, the “Pain threshold, before medication” value (rats; [5]) was 67.7 mm Hg, the Analgesic coefficient (rats; 100 mg/kg per os, normal paw) was 0.98 and the “Pain threshold after 30 min.” value (rats; 100 mg/kg per os, normal paw) was 69.0 mm Hg. The “Pain threshold after 60 min.” value (rats; 100 mg/kg per os, normal paw) was 66.7 mm Hg, the “Pain threshold after 90 min.” value (rats; 100 mg/kg per os, normal paw) was 65.5 mm Hg and the “Pain threshold after 120 min.” value (rats; 100 mg/kg per os, normal paw) was 64.8 mm Hg. The “Pain threshold after 180 min.” value (rats; 100 mg/kg per os, normal paw) was 62.8 mm Hg, the “Pain threshold after 240 min.” value (rats; 100 mg/kg per os, normal paw) was 64.0 mm Hg and the “Pain threshold, before medication” value (rats; 100 mg/kg per os, normal paw) was 66.9 mm Hg. The edema percent (Wister-strain rats; 50 mg/kg per os, 1 hr.) was 38.8%, the inhibitory percent (Wister-strain rats; 50 mg/kg per os, 1 hr.) was 19.6% and the edema percent (Wister-strain rats; 50 mg/kg per os, 2 hrs.) was 47.7%. For the same molecule, the inhibitory percent (Wister-strain rats; 50 mg/kg per os, 2 hrs.) was 25.5%, the edema percent (Wister-strain rats; 50 mg/kg per os, 3 hrs.) was 48.8% and the inhibitory percent (Wister-strain rats; 50 mg/kg per os, 3 hrs.) was 29.2%. It also gave an edema percent (Wister-strain rats; 50 mg/kg per os, 4 hrs.) of 46.7%, an inhibitory percent (Wister-strain rats; 50 mg/kg per os, 4 hrs.) of 25.2% and an edema percent (Wister-strain rats; 50 mg/kg per os, 5 hrs.) of 39.4%. It also gave an inhibitory percent (Wister-strain rats; 50 mg/kg per os, 5 hrs.) of 32.9%, an edema percent (Wister-strain rats; 100 mg/kg per os, 1 hr.) of 34.2% and an inhibitory percent (Wister-strain rats; 100 mg/kg per os, 1 hr.) of 17.7%. It also gave an edema percent (Wister-strain rats; 100 mg/kg per os, 2 hrs.) of 38.1%, an inhibitory percent (Wister-strain rats; 100 mg/kg per os, 2 hrs.) of 39.3% and an edema percent (Wister-strain rats; 100 mg/kg per os, 3 hrs.) of 40.1%. The inhibitory percent (Wister-strain rats; 100 mg/kg per os, 3 hrs.) was 42.4%, the edema percent (Wister-strain rats; 100 mg/kg per os, 4 hrs.) was 39.7% and the inhibitory percent (Wister-strain rats; 100 mg/kg per os, 4 hrs.) was 38.5%. It also gave an edema percent (Wister-strain rats; 100 mg/kg per os, 5 hrs.) of 36.0% and an inhibitory percent (Wister-strain rats; 100 mg/kg per os, 5 hrs.) of 38.3%.
